From US9758524B2, “4-imidazopyridazin-1-yl-benzamides as Btk inhibitors” (Merck Sharp & Dohme B.V., priority 2011, dated 2017) come the findings set out here.

One test has as its target FynT enzyme (Homo sapiens (Human), UniProt P06241). Briefly: FynT enzyme activity (IMAP fluorescence polarization assay). It counts as biochemical. Conditions: 60 min pre-incubation, 0.2 μM ATP. In outline: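 Human FynT pre-incubated with compounds 60 min at room temperature, then reacted 2 h at room temperature with fluorescein-labelled p34cdc2 peptide (100 nM final). Stopped with IMAP binding solution; fluorescence polarization read after 60 min. Activity as % of ±ATP control difference; EC50 by curve fitting.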
On the technique in general: Fluorescence polarisation rises when a labelled molecule tumbles more slowly, as on binding a larger partner.

For another test, the target named is Src enzyme (Homo sapiens (Human), UniProt P12931). Briefly: Src enzyme activity (IMAP fluorescence polarization assay). Conditions: read-out: EC50 Src activity values; IMAP, 60 min pre-incubation, 4 μM ATP.
The target in the next test is Lyn enzyme (Homo sapiens (Human), UniProt P07948). Briefly: Lyn enzyme activity (IMAP fluorescence polarization assay). To be noted: read-out: EC50 Lyn activity values, 60 min pre-incubation, 2 μM ATP, bin bound in μM.
The target of another test is Lck enzyme (Homo sapiens (Human), UniProt P06239). Briefly: Lck enzyme activity (IMAP fluorescence polarization assay). Conditions: read-out: EC50 Lck activity values; IMAP, 60 min pre-incubation, 6 μM ATP; bin bound in μM.
A further test concerns the target Btk enzyme (His-Btk) (Homo sapiens (Human), UniProt Q06187). Description: Btk enzyme activity (IMAP fluorescence polarization assay).
Where [1] appears, read: read-out: EC50 Btk activity values, IMAP, 60 min pre-incubation, 5 μM ATP, bin bound in nM.
Setting [2] is: IMAP, 60 min pre-incubation, 5 μM ATP, bin bound in nM.

Read-outs that look alike come from different tables or passages of the source.

Chain of Btk enzyme (His-Btk) (Q06187 whole entry): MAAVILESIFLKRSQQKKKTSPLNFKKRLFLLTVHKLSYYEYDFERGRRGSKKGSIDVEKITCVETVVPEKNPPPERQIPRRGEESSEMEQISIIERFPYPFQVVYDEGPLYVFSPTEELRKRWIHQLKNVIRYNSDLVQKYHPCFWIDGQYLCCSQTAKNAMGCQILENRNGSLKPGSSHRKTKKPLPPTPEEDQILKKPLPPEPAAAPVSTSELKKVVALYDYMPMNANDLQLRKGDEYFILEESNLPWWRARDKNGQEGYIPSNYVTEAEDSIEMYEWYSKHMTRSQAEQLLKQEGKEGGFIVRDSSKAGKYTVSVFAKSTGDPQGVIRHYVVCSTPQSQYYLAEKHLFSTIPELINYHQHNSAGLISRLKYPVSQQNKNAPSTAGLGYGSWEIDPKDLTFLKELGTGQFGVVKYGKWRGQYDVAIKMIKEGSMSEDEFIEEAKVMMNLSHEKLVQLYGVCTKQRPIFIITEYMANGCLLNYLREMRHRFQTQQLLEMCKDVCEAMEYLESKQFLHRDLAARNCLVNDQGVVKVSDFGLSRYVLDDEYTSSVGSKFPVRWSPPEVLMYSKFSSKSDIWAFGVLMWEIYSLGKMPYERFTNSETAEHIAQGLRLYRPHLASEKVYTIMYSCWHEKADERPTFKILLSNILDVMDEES
Chain of FynT enzyme (P06241 other isoform, or with tags, fused parts or gaps): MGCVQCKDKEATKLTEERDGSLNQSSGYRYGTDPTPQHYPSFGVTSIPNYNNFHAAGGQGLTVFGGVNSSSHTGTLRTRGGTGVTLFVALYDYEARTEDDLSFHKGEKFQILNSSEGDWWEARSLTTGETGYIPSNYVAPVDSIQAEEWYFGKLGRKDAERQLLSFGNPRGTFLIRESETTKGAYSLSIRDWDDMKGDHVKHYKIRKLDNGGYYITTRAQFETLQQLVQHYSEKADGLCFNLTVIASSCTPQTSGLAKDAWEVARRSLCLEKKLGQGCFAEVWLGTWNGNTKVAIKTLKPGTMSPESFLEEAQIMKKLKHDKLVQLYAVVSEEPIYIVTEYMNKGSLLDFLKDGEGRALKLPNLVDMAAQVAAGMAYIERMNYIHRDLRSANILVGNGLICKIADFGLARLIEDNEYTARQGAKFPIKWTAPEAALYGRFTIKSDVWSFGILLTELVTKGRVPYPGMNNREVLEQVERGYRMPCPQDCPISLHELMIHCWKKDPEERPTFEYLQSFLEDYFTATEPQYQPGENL
Chain of Lyn enzyme (P07948 whole entry): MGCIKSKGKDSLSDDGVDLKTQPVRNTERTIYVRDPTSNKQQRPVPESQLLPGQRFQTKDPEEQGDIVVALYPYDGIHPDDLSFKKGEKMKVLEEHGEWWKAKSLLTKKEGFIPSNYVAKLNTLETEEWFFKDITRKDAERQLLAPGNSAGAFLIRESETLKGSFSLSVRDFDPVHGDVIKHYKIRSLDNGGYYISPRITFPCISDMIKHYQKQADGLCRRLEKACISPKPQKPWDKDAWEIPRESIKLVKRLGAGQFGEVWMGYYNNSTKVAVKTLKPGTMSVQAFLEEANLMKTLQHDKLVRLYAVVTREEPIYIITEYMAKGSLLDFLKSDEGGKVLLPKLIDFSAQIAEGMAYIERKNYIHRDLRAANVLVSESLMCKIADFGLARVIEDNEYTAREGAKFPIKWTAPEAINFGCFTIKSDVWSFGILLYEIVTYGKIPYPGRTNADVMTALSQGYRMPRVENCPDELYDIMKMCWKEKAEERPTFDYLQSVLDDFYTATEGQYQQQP
Chain of Lck enzyme (P06239 whole entry): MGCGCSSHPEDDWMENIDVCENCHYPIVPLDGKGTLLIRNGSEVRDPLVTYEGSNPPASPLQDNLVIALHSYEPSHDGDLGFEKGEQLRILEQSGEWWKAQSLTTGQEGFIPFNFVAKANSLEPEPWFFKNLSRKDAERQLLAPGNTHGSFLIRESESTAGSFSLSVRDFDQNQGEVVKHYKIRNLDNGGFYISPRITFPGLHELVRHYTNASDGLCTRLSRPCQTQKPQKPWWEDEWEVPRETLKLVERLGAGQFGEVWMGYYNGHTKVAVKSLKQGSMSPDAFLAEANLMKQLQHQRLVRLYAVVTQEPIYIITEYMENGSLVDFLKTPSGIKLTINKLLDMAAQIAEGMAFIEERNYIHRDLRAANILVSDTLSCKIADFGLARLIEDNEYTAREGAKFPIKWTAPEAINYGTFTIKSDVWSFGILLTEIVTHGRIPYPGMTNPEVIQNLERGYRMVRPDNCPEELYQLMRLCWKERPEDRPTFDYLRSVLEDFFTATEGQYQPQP
Chain of Src enzyme (P12931 whole entry, looked up): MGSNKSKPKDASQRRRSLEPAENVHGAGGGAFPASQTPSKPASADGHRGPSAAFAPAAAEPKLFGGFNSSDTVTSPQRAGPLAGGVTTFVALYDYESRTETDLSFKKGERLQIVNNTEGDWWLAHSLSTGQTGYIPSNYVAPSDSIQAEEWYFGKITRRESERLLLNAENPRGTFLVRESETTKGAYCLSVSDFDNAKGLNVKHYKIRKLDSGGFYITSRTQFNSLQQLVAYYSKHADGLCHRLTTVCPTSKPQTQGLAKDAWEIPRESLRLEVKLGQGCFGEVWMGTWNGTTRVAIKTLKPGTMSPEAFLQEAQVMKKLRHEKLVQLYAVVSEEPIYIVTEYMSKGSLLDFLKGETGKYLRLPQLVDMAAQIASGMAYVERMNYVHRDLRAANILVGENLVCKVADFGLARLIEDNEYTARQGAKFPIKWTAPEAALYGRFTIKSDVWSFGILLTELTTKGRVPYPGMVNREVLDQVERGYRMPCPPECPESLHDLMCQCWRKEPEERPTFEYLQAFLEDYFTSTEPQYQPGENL

For the molecule `CC#CC(=O)N[C@@H](C)c1nc(-c2ccc(C(=O)Nc3ccccn3)cc2)c2c(N)nccn12` [Example 30, (S)-4-(8-Amino-3-(1-but-2-ynamidoethyl)imidazo[1,5-a]pyrazin-1-yl)-N-(pyridin-2-yl)benzamide], the concentration for a half-maximal effect (EC50) (as a rule, the concentration that produces a half-maximal response) on FynT enzyme was not below 1000 nM; on Src enzyme, not below 1000 nM; on Lyn enzyme, not below 1 µM; at Lck enzyme, not below 1 µM; at Btk enzyme (His-Btk) (setting [1]), less than 10 nM.

With `COC/C=C/C(=O)N1CCC[C@H]1c1nc(-c2ccc(C(=O)Nc3cc(C)ccn3)cc2)c2c(N)nccn12` [Example 57, (S,E)-4-(8-amino-3-(1-(4-methoxybut-2-enoyl)pyrrolidin-2-yl)imidazo[1,5-a]pyrazin-1-yl)-N-(4-methylpyridin-2-yl)benzamide], the EC50 was not below 1000 nM at FynT enzyme; not below 1000 nM at Src enzyme; not below 1 µM at Lyn enzyme; not below 1 µM at Lck enzyme; 10 to 100 nM on Btk enzyme (His-Btk). The “EC50 Btk activity values” at Btk enzyme (His-Btk) (setting [2]) is recorded as less than 100 nM.

For `CN(C)C/C=C/C(=O)N1CCCC[C@H]1c1nc(-c2ccc(C(=O)Nc3cccnn3)cc2)c2c(N)nccn12` [Example 73, (S,E)-4-(8-amino-3-(1-(4-(dimethylamino)but-2-enoyl)piperidin-2-yl)imidazo[1,5-a]pyrazin-1-yl)-N-(pyridazin-3-yl)benzamide], the EC50 was not below 1000 nM at FynT enzyme; not below 1000 nM at Src enzyme; not below 1 µM on Lyn enzyme; not below 1 µM at Lck enzyme; 10 to 100 nM at Btk enzyme (His-Btk). In addition, the “EC50 Btk activity values” on Btk enzyme (His-Btk) (setting [2]) is recorded as less than 100 nM.

On to `C=CC(=O)N1CCCC[C@H]1c1nc(-c2ccc(C(=O)Nc3cc(CCC)ccn3)c(F)c2)c2c(N)nccn12` [Example 26, (S)-4-(3-(1-Acryloylpiperidin-2-yl)-8-aminoimidazo[1,5-a]pyrazin-1-yl)-2-fluoro-N-(4-propylpyridin-2-yl)benzamide], for which the EC50 at FynT enzyme was not below 1000 nM; at Src enzyme, not below 1000 nM; at Lyn enzyme, not below 1 µM; on Lck enzyme it was not below 1 µM; at Btk enzyme (His-Btk) (setting [1]), less than 10 nM.

Regarding `Nc1nccn2c([C@@H]3CCCN3C(=O)c3ccnc(Cl)n3)nc(-c3ccc(C(=O)Nc4ccccn4)c(F)c3)c12` [Example 84, (S)-4-(8-amino-3-(1-(2-chloropyrimidine-4-carbonyl)pyrrolidin-2-yl)imidazo[1,5-a]pyrazin-1-yl)-2-fluoro-N-(pyridin-2-yl)benzamide], the EC50 on FynT enzyme is not below 1000 nM; at Src enzyme, not below 1000 nM; at Lyn enzyme, not below 1 µM; on Lck enzyme, not below 1 µM; at Btk enzyme (His-Btk), 10 to 100 nM. For the same molecule, on Btk enzyme (His-Btk) (setting [2]), the “EC50 Btk activity values” was less than 100 nM.

Consider `COC/C=C/C(=O)N1CCC[C@H]1c1nc(-c2ccc(C(=O)Nc3cc(C(F)(F)F)ccn3)cc2)c2c(N)nccn12` [Example 128, (S,E)-4-(8-amino-3-(1-(4-methoxybut-2-enoyl)pyrrolidin-2-yl)imidazo[1,5-a]pyrazin-1-yl)-N-(4-(trifluoromethyl)pyridin-2-yl)benzamide], for which the EC50 on FynT enzyme was not below 1000 nM; at Src enzyme it was not below 1000 nM; on Lyn enzyme, not below 1 µM; on Lck enzyme it was not below 1 µM; on Btk enzyme (His-Btk) (setting [1]) it was less than 10 nM.

As for `CC#CC(=O)N1CCCC[C@H]1c1nc(-c2ccc(C(=O)Nc3cc(C(F)(F)F)ccn3)cc2)c2c(N)nccn12` [Example 63, (S)-4-(8-amino-3-(1-but-2-ynoylpiperidin-2-yl)imidazo[1,5-a]pyrazin-1-yl)-N-(4-(trifluoromethyl)pyridin-2-yl)benzamide], the EC50 at FynT enzyme was not below 1000 nM; on Src enzyme it was not below 1000 nM; at Lyn enzyme, not below 1 µM; on Lck enzyme, not below 1 µM; at Btk enzyme (His-Btk) (setting [1]), less than 10 nM.
